According to patent US5204355A, “15-nitro-2β, 3β-dihydro- and 15-nitro-2β,3β,6,7-tetrahydrotabersonine derivatives, pharmaceutical compositions containing them and process for preparing same” (Richter Gedeon Vegyeszeti Gyar RT., priority 1990, dated 1993):

Tests used:
[1] = tested on: TET-induced increase in the brain water content; assay: TET-induced cerebral edema in rats (brain water content, protective effect); type: in vivo, inbred male Hannover Wistar rats; details: for Brain water content % ± S.E.M. / Protective effect %: 5 days TET 2.5 mg/kg; for protective action against TET-induced edema (in words): result in words
Excerpt: The inhibitory effect on the cerebral edema of the compounds of formula (I) was studied by using the method of P. Linnee et al. "L'oedeme cerebral induit chez 1e rat par le triethyletain. Interet et limites comme methode d'etude de antioedemateux cerebraux", Ann. Pharmaceutiques francaises, 42, 431 (1984)) as described hereinafter in detail.
Inbred male Hannover Wistar rats weighing 180 to 200 g were used in these examinations. Before starting and during the treatment the animals were kept on normal laboratory diet and received tap water ad libitum.
The cerebral edema was induced by the daily administration of 2.5 mg/kg of triethyl-tin chloride (abbreviated hereinafter as TET) for 5 days. TET (Merck-Schuchardt, Darmstadt, Germany) was dissolved in distilled water under stirring and the stirring was continued during the treatment, too. TET was orally administered to the animals every day at 7 o'clock a.m.
Both the reference drugs and test compounds were homogenized in a 0.5 % carboxymethylcellulose solution by using an Ultra Turrax mixer and stirring was continued also during the administration. The first dose of the reference and test compounds, respectively, was orally 5 given following the TET treatment by 1 or 6 hours, respectively. The administration was always carried out in a volume of 0.5 ml/100 g of body-weight. Each group consisted of 7 animals; the control group received only the solvent of TET (distilled water) and the vehicle used for the compounds (0.5% carboxymethylcellulose solution) in an identical volume and at the same time as described above.
The animals were decapitated on the 5th day of the treatment at 2 hours after the last treatment (with the test compound). The whole brain was rapidly removed, washed with cold 0.9 % saline, the moisture was removed by a filter paper, the brains were placed on aluminum foils previously weighed and the wet weights of the brains (together with the aluminum foil of known weight) were determined with an accuracy of one tenth mg on an electric balance (Precisa 80/A, PAG Oerlikon AG, Zurich, Switzerland).
Subsequently the brains were dried at 90° C. for 92 hours, then the gross dry weight (dry weight of the brain together with the weight of the aluminum foil) was again measured. With the knowledge of the dry and wet weights, the brain water content, i.e. the effect of treatment by the compound was calculated and expressed in the percentage of the protective effect by using the following formula: [formula] wherein (TET-Ko) means the percentage of average brain water content of the animals treated with TET and vehicle;
(TET-V) means the percentage of average brain water content of the animals treated with TET and the compound; and
(Veh-Ko) means the percentage of average brain water content of the animals treated with distilled water and vehicle.
The deviations of changes in the brain water content (and dry weight) were analyzed by the means of Student's "t" trial.

Asphyxial anoxia = assay: Antihypoxic effect on mice (asphyxial anoxia); type: in vivo, male mice (CFLP LATI); details: for ED50: Mus musculus, po, 1 hour before, protected = survival 30 % longer than control
Experimental: The antianoxic action of the target compounds was studied by using the following test method.
ANTIHYPOXIC EFFECT ON MICE
Male mice (CFLP LATI) weighing 24 to 26 g were used in these experiments. The test compounds were orally administered in a volume of 10 ml/kg one hour before starting the experiment.
The animals were orally treated with various doses of the test compounds after starving for 16 hours. One hour following the treatment the animals were placed in air-tight glass cylinders of 100 ml volume and the survival time of the animals was measured. Each group consisted of 10 animals. Animals, surviving longer by 30 % than the average survival time of the control group treated with placebo, were considered to be protected. The ED50 value (the dose effective in 50 % of the animals) was calculated from the percentage of surviving animals by using probit analysis.

COC1=C(OC)C(=O)C(CCCCCCCCCCO)=C(C)C1=O [idebenone, 5,6-dimethoxy-2-(10-hydroxydecyl)-3-methyl-p-benzoquinone]
Brain water content % ± S.E.M. ([1]; Experiment 3, 100 μmol/kg oral): 79.75 ± 0.14% | Protective effect % ([1]; Experiment 3, 100 μmol/kg oral): 14.0% | Brain water content % ± S.E.M. ([1]; Experiment 6, 100 μmol/kg oral): 80.22 ± 0.16% | Protective effect % ([1]; Experiment 6, 100 μmol/kg oral): 16.9% | protective action against TET-induced edema (in words) [1]: did not produce any practically useful protective action

(5'α, 10α)-9, 10-dihydro-12'-hydroxy- 2'-methylethyl)-5'-benzylergotamine-3+, 6', 18-trione monomethanesulfonate [hydergine]
Brain water content % ± S.E.M. ([1]; Experiment 6, 30 mg/kg oral): 79.97 ± 0.38% | Protective effect % ([1]; Experiment 6, 30 mg/kg oral): 25.6% | protective action against TET-induced edema (in words) [1]: did not produce any practically useful protective action

NC(=O)CN1CCCC1=O [piracetam, 2-oxo-1-pyrrolidineacetic acid amide]
Brain water content % ± S.E.M. ([1]; Experiment 5, 100 μmol/kg oral): 80.04 ± 0.28%

CC[C@]12CCCN3CC[C@]4(C(=C(C(=O)OC)C1)Nc1ccc([N+](=O)[O-])cc14)[C@@H]32 [compound 1700374, 15-nitro-6,7-dihydrotabersonine]
ED50 (Asphyxial anoxia): > 100 mg/kg | protection against cerebral hypoxia (in words) (Asphyxial anoxia; result in words, up to 100 mg/kg p.o.): did not provide any protection

CC[C@]12C=CCN3CC[C@@]4(c5cc([N+](=O)[O-])ccc5N[C@H]4[C@@H](C(=O)OC)C1)[C@@H]32 [compound 1703594, methyl-15-nitro-6,7-didehydro-(2β, 5α, 12β, 19α)-aspidospermidine-(15-nitro-2β, 3β-dihydrotabersonine)]
Brain water content % ± S.E.M. ([1]; Experiment 4, 50 μmol/kg oral): 78.61% | Protective effect % ([1]; Experiment 4, 50 μmol/kg oral): 82.9% | ED50 (Asphyxial anoxia): 56.3 mg/kg

CC[C@]12CCCN3CC[C@@]4(c5cc([N+](=O)[O-])ccc5N[C@H]4[C@@H](C(=O)OC)C1)[C@@H]32 [compound 1704369, methyl 15-nitro-(2β, 5α, 12β, 19α)-aspidospermidine-3α-carboxylate]
protection against the edema-inducing effect of TET ([1]; 100 μmol/kg oral, summary of experiments in text): 100% | Brain water content % ± S.E.M. ([1]; Experiment 1, 100 μmol/kg oral): 78.09 ± 0.09% | Protective effect % ([1]; Experiment 1, 100 μmol/kg oral): 103.6% | Brain water content % ± S.E.M. ([1]; Experiment 2, 100 μmol/kg oral): 78.15 ± 0.05% | Protective effect % ([1]; Experiment 2, 100 μmol/kg oral): 99.3% | Brain water content % ± S.E.M. ([1]; Experiment 4, 50 μmol/kg oral): 78.30% | Protective effect % ([1]; Experiment 4, 50 μmol/kg oral): 105.9% | protective action against TET-induced edema (in words) [1]: even more effective than the structurally similar vincamine

CCOC(=O)[C@H]1C[C@]2(CC)CCCN3CC[C@@]4(c5cc([N+](=O)[O-])ccc5N[C@@H]14)[C@@H]32 [compound 1708009, ethyl 15-nitro-(2β, 5α, 12β, 19α)-aspidospermidine-3α-carboxylate]
Brain water content % ± S.E.M. ([1]; Experiment 3, 50 μmol/kg oral): 79.44 ± 0.11% | Protective effect % ([1]; Experiment 3, 50 μmol/kg oral): 32.5% | protective action against TET-induced edema (in words) [1]: similarly effective | ED50 (Asphyxial anoxia): 62 mg/kg

CC[C@]12CCCN3CCc4c(n(c5ccccc45)[C@@](O)(C(=O)OC)C1)[C@@H]32 [vincamine, (+) -14β-hydroxy-14α-methoxycarbonyl-14, 15- -dihydroeburnamenine]
Brain water content % ± S.E.M. ([1]; Experiment 1, 100 μmol/kg oral): 78.83 ± 0.15% | Protective effect % ([1]; Experiment 1, 100 μmol/kg oral): 64.9% | Brain water content % ± S.E.M. ([1]; Experiment 2, 100 μmol/kg oral): 78.70 ± 0.13% | Protective effect % ([1]; Experiment 2, 100 μmol/kg oral): 59.6% | Brain water content % ± S.E.M. ([1]; Experiment 4, 50 μmol/kg oral): 79.31% | Protective effect % ([1]; Experiment 4, 50 μmol/kg oral): 31.6%
